Assay results taken from US4120951A, “Polypeptide hormones of the thymus” (Sloan-Kettering Institute for Cancer Research, priority 1977, dated 1978).
Ends that are not written are not given here.

Columns and labels:
spleen cells = experiment: Direct cytotoxic test (trypan blue) for TL induction, spleen cells; format: cell-based, mouse; conditions: 20 ng/ml, 2 hours, least dense BSA gradient fraction
Procedure: (§1) Bone marrow cells were obtained from the femoral marrow. Both spleen and marrow cells were teased into single cell suspensions and washed three times in RPMI 1640 medium supplemented with 10 mM Hepes and 100 U/ml of penicillin and 100 μg/ml of streptomycin. The cells were then suspended in the same medium with 10% bovine serum at a concentration of 5.0×10^6 cells/ml. One milliliter of this suspension was incubated with an appropriate dilution of thymin in 16 mm plastic petrie dishes in a humidified atmosphere containing 5% CO2 in air. At the end of the incubation the cells were washed twice and held at 4° C. at a concentration of 5.0×10^6 cells/ml in culture medium until tested for the presence of TL or Thy-1(0).
(§2) Bone marrow and spleen cells were obtained by flotation in BSA gradients similar to those used by Komuro and Boyse (Lancet, 10, 39, 1964). These cells were tested for their susceptibility to anti TL and Thy-1(0) antibodies in a direct cytotoxicity test, using the uptake of trypan blue as a measure of cell death.
(§3) The actual number of cells induced could not be determined in the cytotoxic inhibition assay since this test is a measure of the total antigen present in the culture. […] However, unless sufficient numbers of such cells are present they cannot be detected because of a substantial background usually found in such tests. […]

[1] = test system: neuromuscular transmission; experiment: Electromyographic assay of neuromuscular transmission in mice after intraperitoneal injection; format: in vivo; conditions: for activity of the isolated fraction in producing neuromuscular block: QAE-Sephadex fractions, FIG. 3; for therapeutically effective amount: at least about; for dose producing a statistically significant (P < 0.001) decrement in the electromyographic response: 5 days after dose, supramaximal nerve stimulation 50 impulses per second; for mean decrement: height of tenth muscle action potential as % of the first: 5 days after doses above threshold, controls 94 ± 2%; for dose range at which active: test not stated
Procedure: To determine the neuromuscular action of Thymin I and Thymin II, the electromyographic response of mice 5 days after various doses of Thymin I or Thymin II is summarized in FIG. 4. Bovine serum albumin (0.5 mg/ml, 0.9% saline) was used as a protein stabilizer and controls were injected with the solvent alone.
In 15 control mice sampled at 75 sites the height of the tenth muscle action potential was 94 ± 2% (mean ± s.e.m.) of the height of the first. The mean values and s.e.m. (vertical bars) are shown for groups of 4-10 mice given various doses of Thymin I(o) and Thymin II (.quadrature.). Statistical significances of differences from the controls were calculated by Student's t-test and are shown by solid symbols (P < 0.001 ), half solid symbols (0.05 > P < 0.001) and open symbols (P > 0.05).
Mice were given 100 ng of Thymin I or solvent and five mice from each group were tested at various times. With supramaximal nerve stimulation at 50 impulses per second the height of the tenth muscle action potential was expressed as a percentage of the first. This change was calculated for five points in each of five to ten mice from each group. For each time point the change in Thymin-treated mice was expressed as a percentage of the change in solvent-treated control mice and the statistical significance of the difference was assessed by Student's t-test. A statistically significant (P < 0.001) abnormality in the electromyogram was first evident at 18 hours, was maximal at 24 hours and persisted through 5 days.
To make the determinations described in FIGS. 4 and 5, extracts were injected into test animals and neuromuscular transmission was studied after an interval of one to five days. Initial 100 g guinea pigs were injected intraperitoneally; neuromuscular transmission was studied in vitro with a preparation of the phrenic nerve and hemidiaphragm. Subsequently, 200 g rats were used; fractions were injected subcutaneously and neuromuscular transmission was assessed electromyographically. […] Female Swiss-Webster mice weighing 25-35 g were injected intraperitoneally, groups of five to ten mice being used to test each fraction. The animals were anesthetized with urethane and electromyography was performed as described. The muscle action potentials were recorded in each mouse following supramaximal nerve stimulation with 10 impulses at a rate of 50 per second. Five sites were sampled in each mouse and for each group of mice the mean standard deviation and s.e.m. were calculated for the change in the height of the muscle action, potential being expressed as a percentage of the height of the first impulse.
The statistical significance of differences found were assessed by student's t-test.

mouse bone marrow cells = experiment: Cytotoxic inhibition test for induction of TL and Thy-1 antigens; format: cell-based; conditions: for absorption of antibodies directed against TL or Thy-1 by treated cells: unfractionated bone marrow cells, 100 ng/ml, 18 hours
Procedure: Thymin I and Thymin II were isolated from bovine thymus as described. Each was dissolved in phosphate buffered saline (containing 1 mg/ml of bovine serum albumen to minimize adsorbtive losses), distributed into 2 μg lots and lyophilized. Each polypeptide was reconstituted in tissue culture medium at the desired concentrations just prior to use.
as §1
ASL-1, a TL positive, Thy 1-2 (0-C3H) positive lymphoma of A strain mice was used as the target cell in all titrations of the antisera used in these experiments, and in the cytotoxic inhibition test to be described below. The lymophoma was maintained by weekly intraperitoneal passage in A/J mice. Lymphoma cells were labelled with Cr^51 and used as target cells in the cytotoxic inhibition test.
Antisera to either TL or Thy-1 (0) were titered to determine the quantity of antibody which was required to kill 50% of the target cells in a standard suspension. The appropriate amount of antiserum was added to each well of a microtiter plate with various dilutions of the cells being tested for their antigen content. The total volume was 0.15 ml. Cells expressing the antigen against which the antiserum was directed absorbed varying amounts of the antibody, and rendered less available to react with the Cr^51 labelled target cells which were added subsequently. The concentration of antibody used was extremely critical to the sensitivity of the test. The antisera to TL or Thy-1 (0) and the cells being tested for their antigen content were incubated together at 4° C. for 90 minutes. After this incubation 50,000 target cells in a volume of […] were added and the incubation continued in the cold for an additional 30 minutes to permit the sensitization of the target cells by the remaining unabsorbed antibody. The plates were then centrifuged at 1,500 rpm for 10 minutes and the supernatant fluid removed. The pelleted cells were resuspended in 0.1 ml or RPMI 1640, containing 4% fresh rabbit serum as a source of complement, and incubated for 45 minutes at 37° C. The cells were then repelleted by centrifugation and a 0.075 ml aliquot of the supernatant fluid was counted in an automatic gamma spectrometer to determine the amount of Cr^51 released from the target cells. All assays were performed in duplicate and the results were expressed by calculating the number of cells required to reduce the relative cytotoxic index (RCI) to 0.5. The RCI was calculated as follows: [formula]

bone marrow cells = experiment: Direct cytotoxic test (trypan blue) for TL induction, bone marrow cells; format: cell-based, mouse
Procedure: as §1, §2, §3

[2] = single injection of 100 ng, mice

Row | Sequence | spleen cells killed by anti TL antiserum plus complement (spleen cells) | activity of the isolated fraction in producing neuromuscular block [1] | therapeutically effective amount [1] | relative activity on neuromuscular transmission ([1]; compared with Thymin II) | dose producing a statistically significant (P < 0.001) decrement in the electromyographic response ([1]; mice) | mean decrement: height of tenth muscle action potential as % of the first ([1]; mice) | time at which the electromyogram abnormality was maximal [1, 2] | time through which the electromyogram abnormality persisted [1, 2] | time at which the electromyogram abnormality was first evident ([1]; single injection of 100 ng, mice, P < 0.001) | dose range at which active [1] | concentration of maximal activity (mouse bone marrow cells) | lowest concentration at which active (mouse bone marrow cells) | concentration giving maximal induction of TL and Thy-1 antigens (mouse bone marrow cells; bone marrow cells) | lowest concentration producing a measurable response (induction of TL and Thy-1 antigens) (mouse bone marrow cells; bone marrow cells) | relative potency in inducing TL and Thy-1 antigens (mouse bone marrow cells; compared with Thymin II) | absorption of antibodies directed against TL or Thy-1 by treated cells (mouse bone marrow cells) | bone marrow cells killed by anti TL antiserum plus complement (bone marrow cells; 20 ng/ml, 2 hours, least dense BSA gradient fraction) | highest value of cells killed by anti TL antiserum plus complement (bone marrow cells; other experiments, tissue not stated)
1 | GQFLEDPSVLTKEKLKSELVANNVTLPAGEQRKDVYVQLYLQHLTAVKR [Thymin I, H2 n--gly--gln--phe--leu--glu--asp--pro--ser--val--leu--thr--lys--glu--lys--leu--lys--ser--glu--leu--val--ala--asn--asn--val--thr--leu--pro--ala--gly--glu--gln--arg--lys--asp--val--tyr--val--gln--leu--tyr--leu--gln--his--leu--thr--ala--val--lys--arg--cooh] | 18% | active | at least 0.20 μg/kg of body weight | slightly more active | above 4 ng/mouse | 84% | 24 h | 5 days | 18 h | about 0.1 mg/kg of body weight | 0.2-2 nanogram per mll | 20 picogram per mll | 2 ng/mL | 20 pg/mL | slightly more potent | absorbed antibodies | 21% | ≤ 28%
2 | SQFLEDPSVLTKEKLKSELVANNVTLPAGEQRKDVYVQLYLQTLTAVKR [Thymin II, H2 n--ser--gln--phe--leu--glu--asp--pro--ser--val--leu--thr--lys--glu--lys--leu--lys--ser--glu--leu--val--ala--asn--asn--val--thr--leu--pro--ala--gly--glu--gln--arg--lys--asp--val--tyr--val--gln--leu--tyr--leu--gln--thr--leu--thr--ala--val--lys--arg--cooh] |  | active | at least 1.3 μg/kg of body weight |  | above 32 ng/mouse | 82% |  |  |  | about 0.1 mg/kg of body weight | 0.2-2 nanogram per mll | 20 picogram per mll |  |  |  | absorbed antibodies |  | 
